47 compounds from BindingDB's records for doi:10.7270/Q2K935WV (Nmmlsc, 2008) can be followed below.

The target in the assay is Isoform Bcl-X(L) of Bcl-2-like protein 1 (Bcl-xL) (Homo sapiens, UniProt Q07817). Put plainly: Bim-Bcl-XL interaction inhibitors, potency, dose response, biochemical, multiplexed, bead flow cytometry, human Bcl-XL (AID 1322). The following applies: pH 7.4, 4 °C. Background: A flow cytometer gives signals particle by particle.
The mark [1] stands for this setting: inactive by the depositor's call.

Counter-ions that a name gives are not always drawn.

Isoform Bcl-X(L) of Bcl-2-like protein 1 (Bcl-xL), sequence (Q07817 whole entry G70A, canonical isoform): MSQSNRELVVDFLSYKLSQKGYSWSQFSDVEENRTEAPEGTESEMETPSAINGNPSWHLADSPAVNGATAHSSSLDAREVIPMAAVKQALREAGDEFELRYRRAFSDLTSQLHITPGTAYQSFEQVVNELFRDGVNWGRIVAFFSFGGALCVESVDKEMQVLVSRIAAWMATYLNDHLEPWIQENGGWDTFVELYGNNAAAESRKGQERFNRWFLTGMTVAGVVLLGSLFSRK

`CN1CCc2cccc3c2[C@@H]1Cc1ccc(O)c(O)c1-3` had a concentration for a half-maximal effect (EC50) of 18.6 µM.

`CCN(CC)c1ccc(-c2nn3c(-c4cccnc4)nnc3s2)cc1`: the EC50 under setting [1] came out at 7.92 µM.

As for `CCOCCCNc1nc(S)nc2cc(OC)c(OC)cc12`, the 50% effective concentration (EC50) under setting [1] stood at 3.43 µM. Against the preceding compound, the EC50 is about 2.3-fold lower. Regarding `COCCNc1[nH]c(=S)nc2cc(OC)c(OC)cc12`, the EC50 under setting [1] was found to be 7.43 µM.

`CN1CCN(C2=C(Cl)C(=O)C(c3cnc(N4CCCCC4)s3)=C(Cl)C2=O)CC1`: the concentration giving a half-maximal response (EC50) under setting [1] was 1 µM.

As to `CCOC(=O)c1ccc(Nc2nc(C(=O)OCC)nc3ccccc23)cc1`, the midpoint of the response under setting [1], the EC50, lay at 2.97 µM. Under setting [1], `CCOCCCn1c(N)c(C(=O)Nc2sc3c(c2C(=O)OC)CCCC3)c2nc3ccccc3nc21` registered an EC50 of 1.97 µM. `COc1cccc(CN=Nc2nn3cnnc3c3ccccc23)c1O` registered a 50% effective concentration (EC50) of 0.57 µM.

Compound `CCN1C(=O)/C(=C/C=C2\C=CN(CC)c3ccccc32)SC1=S` gave an EC50 under setting [1] of 29.5 µM. Still for that read-out and setting: for `Cc1ccc(-c2ccc(/C=C/C(=O)c3ccccc3)o2)cc1` the value was 5.19 µM.

`CCC(/C=C1\Sc2ccc(OC)cc2N1CCO)=C\c1sc2ccc(OC)cc2[n+]1CCO`: the midpoint of the response, the EC50, lay at 19.2 µM. For the compound `O=S1(=O)N=C(N(CCO)N=C/C=C/c2ccccc2)c2ccccc21`, the EC50 under setting [1] was determined as 20 µM. This counts as double-digit micromolar. The compound `COc1ccc(-n2c(=O)c3ccccc3c3ccccc3c2=O)c(OC)c1` returned a 50% effective concentration (EC50) under setting [1] of 12.8 µM. Turning to `CCOC(=O)c1c2c3c(cccc3[nH]c1=O)C(=O)c1ccccc1-2`, a half-maximal response under setting [1] (EC50) required 2.12 µM. Against the preceding compound, the EC50 is about 6-fold lower.

As to `Cc1nc2ncccn2c1-c1csc(Nc2ccc(O)cc2)n1`, the response was half-maximal at 0.39 µM (EC50). `COc1cc2nc(=S)n(CCCN3CCOCC3)c(N)c2cc1OC`: under setting [1], the EC50 was 10.9 µM. The compound `Cc1ccc(C(=O)/C=C/c2ccc(-c3ccc(C)cc3)o2)cc1` [1-p-Tolyl-3-(5-p-tolyl-furan-2-yl)-propenone] came in with an EC50 under setting [1] of 2.14 µM. `Cc1cc(OCc2cn3cccnc3n2)ccc1Cl` [2-[(4-chloranyl-3-methyl-phenoxy)methyl]imidazo[1,2-a]pyrimidine] had an EC50 under setting [1] of 17.9 µM.

With `O=C(CSc1ccc2nnc(-c3ccccn3)n2n1)Nc1nccs1` [2-[[3-(2-pyridinyl)-[1,2,4]triazolo[4,3-b]pyridazin-6-yl]thio]-N-(2-thiazolyl)acetamide], under setting [1], the 50% effective concentration (EC50) turned out to be 11.3 µM. `O=C(/C=C/c1ccccc1Cl)c1ccccc(=O)c1O` [3-[(E)-3-(2-chlorophenyl)prop-2-enoyl]-2-oxidanyl-cyclohepta-2,4,6-trien-1-one] yielded an EC50 under setting [1] of 19.3 µM. Consider `NC(=O)c1sc2nc3c(c(-c4ccco4)c2c1N)CCC3` [3-amino-4-(2-furyl)-6,7-dihydro-5H-cyclopenta[b]thieno[3,2-e]pyridine-2-carboxamide], for which the EC50 under setting [1] worked out at 3.43 µM. This EC50 lies about 5.6-fold lower than the previous one. `c1cncc(-c2nnc3n2N=C(c2cccs2)CS3)c1` [3-pyridin-3-yl-6-thiophen-2-yl-7H-[1,2,4]triazolo[3,4-b][1,3,4]thiadiazine] gave an EC50 under setting [1] of 7.17 µM. `Cc1nc2ncccn2c1-c1csc(Nc2ccccc2)n1` [4-(2-methyl-3-imidazo[1,2-a]pyrimidinyl)-N-phenyl-2-thiazolamine] yielded an EC50 under setting [1] of 10.1 µM. Compound `Cc1cc(C)nc(SCc2cc(=O)c(OC(=O)c3ccc(Cl)c([N+](=O)[O-])c3)co2)n1` [4-chloro-3-nitrobenzoic acid [6-[[(4,6-dimethyl-2-pyrimidinyl)thio]methyl]-4-oxo-3-pyranyl] ester] gave an EC50 under setting [1] of 5.09 µM. Turning to `O=C(N[N-][CH+]c1ccc(-c2ccccc2[N+](=O)[O-])o1)c1cncc(Br)c1` [5-bromo-N-[[5-(2-nitrophenyl)furan-2-yl]methylideneamino]pyridine-3-carboxamide], the EC50 under setting [1] stood at 28.3 µM. For the compound `COc1cc2nc(=S)[nH]c(NCC3CCCO3)c2cc1OC` (configuration not stated) [6,7-dimethoxy-4-(2-oxolanylmethylamino)-1H-quinazoline-2-thione], the EC50 under setting [1] worked out at 4.65 µM. Compared with the last compound, the EC50 is about 6.1-fold lower. For `CCOc1ccccc1-n1c(=O)c2ccccc2c2ccccc2c1=O` [6-(2-ethoxyphenyl)-5H-dibenzo[c,e]azepine-5,7(6H)-dione], the midpoint of the response under setting [1], the EC50, lay at 26.5 µM. Still for that read-out and setting: as for `COc1ccc(C2=Nn3c(nnc3-c3ccco3)SC2)cc1OC` [6-(3,4-Dimethoxy-phenyl)-3-furan-2-yl-7H-[1,2,4]triazolo[3,4-b][1,3,4]thiadiazine], the figure is 2.85 µM; as for `CCOc1ccc(C2=Nn3c(nnc3-c3ccccn3)SC2)cc1` [6-(4-ethoxyphenyl)-3-(2-pyridinyl)-7H-[1,2,4]triazolo[3,4-b][1,3,4]thiadiazine], 14.3 µM. Under setting [1], `O=c1nc2c(O)cccn2c2c1c(O)nc1ccccc12` [9-Hydroxy-5H-5,8,12a-triaza-benzo[c]phenanthrene-6,7-dione] gave an EC50 of 13.7 µM. In turn, `CN(N=C/C=C/c1ccccc1)C1=NS(=O)(=O)c2ccccc21` [(1E,2E)-3-phenylacrylaldehyde (1,1-dioxido-1,2-benzisothiazol-3-yl)(methyl)hydrazone] displayed a concentration for a half-maximal effect (EC50) under setting [1] of 2.82 µM. `COc1cc(/C=C2\CC/C(=C\c3cc(OC)c(O)c(OC)c3)C2=O)cc(OC)c1O` [(2E,5E)-2,5-bis[(4-hydroxy-3,5-dimethoxyphenyl)methylidene]cyclopentan-1-one]: a half-maximal effect under setting [1] (EC50) was put at 3.02 µM. In turn, `COc1cc(CN=Nc2nn3cnnc3c3ccccc23)ccc1O` [(4E)-2-methoxy-4-[[2-([1,2,4]triazolo[3,4-a]phthalazin-6-yl)hydrazinyl]methylidene]cyclohexa-2,5-dien-1-one] gave a 50% effective concentration (EC50) of 2.43 µM. Take `O=C1/C(=C\c2ccc(-c3ccccc3Cl)o2)SC(=S)N1CC1CCCO1` (configuration not stated) [(5E)-5-[[5-(2-chlorophenyl)furan-2-yl]methylidene]-3-(oxolan-2-ylmethyl)-2-sulfanylidene-1,3-thiazolidin-4-one]: under setting [1], the EC50 came to 1.55 µM.

For `Cc1ccc(-c2ccc(/C=C3\SC(N4CCOCC4)=NC3=O)o2)cc1` [(5Z)-5-[[5-(4-methylphenyl)-2-furanyl]methylidene]-2-(4-morpholinyl)-4-thiazolone], the midpoint of the response under setting [1], the EC50, lay at 78.6 µM. This EC50 is about 51-fold higher than that of the compound before.

`O=C(/C=C\c1ccc(-c2ccccc2)o1)c1ccccc1` [(Z)-1-phenyl-3-(5-phenyl-2-furanyl)-2-propen-1-one] had a concentration for a half-maximal effect (EC50) of 9.36 µM. `CN1CCc2cccc3c2[C@H]1Cc1ccc(O)c(O)c1-3` [APOMORPHINE HYDROCHLORIDE] had a concentration for a half-maximal effect (EC50) of 18.9 µM. `O=C1c2ccccc2-c2onc3ccc(NCc4ccco4)c1c23` [MLS000080234]: the half-maximal effective concentration (EC50) under setting [1] amounted to 10.2 µM. Under setting [1], `Cc1cc(-c2nnc3n2N=C(c2ccc(-c4ccccc4)cc2)CS3)[nH]n1` [MLS000082991] gave an EC50 of 11.7 µM.

Under setting [1], `Cc1cc2n(c1)CCn1c(C)ccc1-2` [MLS000104384] registered a 50% effective concentration (EC50) of 26.5 µM.

As for `CCCCNC(=O)c1ccc2nc(-c3ccco3)c(-c3ccco3)nc2c1` [MLS000119995], under setting [1], the 50% effective concentration (EC50) came to 25.3 µM. As to `Clc1nc(NCc2cccnc2)nc(N2CCOCC2)n1` [MLS000121154], a half-maximal response under setting [1] (EC50) required 18.1 µM. With `CCCCNc1[nH]c(=S)nc2cc(OC)c(OC)cc12` [MLS000520261], the response was half-maximal at 3.81 µM (EC50). `COCCCn1c(N)c(C(=O)Nc2sc3c(c2C(=O)OC)CCCC3)c2nc3ccccc3nc21` [MLS000595323] yielded a half-maximal effective concentration (EC50) under setting [1] of 3.32 µM. Consider `COc1cc2nc(=S)[nH]c(NCCc3ccc(S(N)(=O)=O)cc3)c2cc1OC` [MLS000674601], for which the concentration giving a half-maximal response (EC50) under setting [1] was determined as 0.51 µM. On the same count and under the same terms, as for `COc1ccc(C)cc1-n1c(=O)c2ccccc2c2ccccc2c1=O` [MLS000682999], the figure is 18.7 µM. Same read-out and setting: for `Cc1ccnc(SCc2cc(=O)c(OC(=O)c3ccc(Cl)c([N+](=O)[O-])c3)co2)n1` [MLS000696790] the value was 19.6 µM.

The EC50 is the concentration giving half of the maximal effect. Read a low EC50 as an effect from little substance.
